Among the data in patent publication US8269019B2, “Inhibitors” (Probiodrug AG, priority 2010, dated 2012) are IC50 and Ki values, retold here.

hQC, sequence (Q16769 29-361): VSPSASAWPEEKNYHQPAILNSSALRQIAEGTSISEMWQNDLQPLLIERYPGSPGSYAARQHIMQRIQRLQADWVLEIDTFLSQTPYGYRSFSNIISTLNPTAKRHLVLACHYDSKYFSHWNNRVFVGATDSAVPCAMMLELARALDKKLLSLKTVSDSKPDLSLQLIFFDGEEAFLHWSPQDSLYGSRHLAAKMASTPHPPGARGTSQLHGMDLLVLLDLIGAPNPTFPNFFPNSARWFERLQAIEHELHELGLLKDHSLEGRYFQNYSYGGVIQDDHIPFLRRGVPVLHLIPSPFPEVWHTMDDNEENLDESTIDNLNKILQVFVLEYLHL

The assay deals with hQC (Homo sapiens, UniProt Q16769). In words: QC inhibitor assay (hQC inhibition, Ki and IC50). It is filed as biochemical. The procedure:
All measurements were performed with a BioAssay Reader HTS-7000Plus for microplates (Perkin Elmer) at 30° C. QC activity was evaluated fluorometrically using H-Gln-βNA. The samples consisted of 0.2 mM fluorogenic substrate, 0.25 U pyroglutamyl aminopeptidase (Unizyme, Hørsholm, Denmark) in 0.2 M Tris/HCl, pH 8.0 containing 20 mM EDTA and an appropriately diluted aliquot of QC in a final volume of 250 μl. Excitation/emission wavelengths were 320/410 nm. The assay reactions were initiated by addition of glutaminyl cyclase. QC activity was determined from a standard curve of β-naphthylamine under assay conditions. One unit is defined as the amount of QC catalyzing the formation of 1 μmol pGlu-βNA from H-Gln-βNA per minute under the described conditions.
In a second fluorometric assay, QC was activity determined using H-Gln-AMC as substrate. Reactions were carried out at 30° C. utilizing the NOVOStar reader for microplates (BMG labtechnologies). The samples consisted of varying concentrations of the fluorogenic substrate, 0.1 U pyroglutamyl aminopeptidase (Qiagen) in 0.05 M Tris/HCl, pH 8.0 containing 5 mM EDTA and an appropriately diluted aliquot of QC in a final volume of 250 μl. Excitation/emission wavelengths were 380/460 nm. The assay reactions were initiated by addition of glutaminyl cyclase. QC activity was determined from a standard curve of 7-amino-4-methylcoumarin under assay conditions. The kinetic data were evaluated using GraFit sofware.
This novel assay was used to determine the kinetic parameters for most of the QC substrates. QC activity was analyzed spectrophotometrically using a continuous method, that was derived by adapting a previous discontinuous assay (Bateman, R. C. J. 1989 J Neurosci Methods 30, 23-28) utilizing glutamate dehydrogenase as auxiliary enzyme. Samples consisted of the respective QC substrate, 0.3 mM NADH, 14 mM α-Ketoglutaric acid and 30 U/ml glutamate dehydrogenase in a final volume of 250 μl. Reactions were started by addition of QC and persued by monitoring of the decrease in absorbance at 340 nm for 8-15 min.
The initial velocities were evaluated and the enzymatic activity was determined from a standard curve of ammonia under assay conditions. All samples were measured at 30° C., using either the SPECTRAFIuor Plus or the Sunrise (both from TECAN) reader for microplates. Kinetic data was evaluated using GraFit software.
For inhibitor testing, the sample composition was the same as described above, except of the putative inhibitory compound added. For a rapid test of QC-inhibition, samples contained 4 mM of the respective inhibitor and a substrate concentration at 1 KM. For detailed investigations of the inhibition and determination of Ki-values, influence of the inhibitor on the auxiliary enzymes was investigated first. In every case, there was no influence on either enzyme detected, thus enabling the reliable determination of the QC inhibition. The inhibitory constant was evaluated by fitting the set of progress curves to the general equation for competitive inhibition using GraFit software.
A word on the IC50: it is the concentration needed to halve the response being measured. The low end stands for greater potency, the high end for weaker potency. As a reminder, the Ki is a measure of affinity in units of concentration, obtained from inhibition or displacement. A low value points to a stronger hold on the target. The compound `COC1=C(C)[C@H](c2cccc(F)c2F)N(c2ccc3nc[nH]c3c2)C1=O` (single isomer, unassigned) [Example 9] gave an IC50 of 18.7 nM and a Ki of 4.7 nM.
For `COC1=C(C)[C@@H](c2cccc(F)c2F)N(c2ccc3nc[nH]c3c2)C1=O` (single isomer, unassigned) [Example 10] the same measures were 169 nM and 32.3 nM.
For `COC1=C(c2ccccc2)C(c2cc(F)cc(F)c2F)N(c2ccc3[nH]cnc3c2)C1=O` (stereo not drawn) [Example 5, 1-(1H-Benzo[d]imidazol-5-yl)-5-(2,3,5-trifluorophenyl)-3-methoxy-4-phenyl-1H-pyrrol-2(5H)-one] the same measures were 317 nM and 54.9 nM.
On the same counts, the results for `COC1=C(C)C(c2cccc(F)c2F)N(c2ccc3nc[nH]c3c2)C1=O` (stereo not drawn) [Example 8, 1-(1H-Benzo[d]imidazol-6-yl)-5-(2,3-difluorophenyl)-3-methoxy-4-methyl-1H-pyrrol-2(5H)-one] are 117 nM and 20.9 nM.
Take `COC1=C(C)C(c2cccc(Cl)c2Cl)N(c2ccc3[nH]cnc3c2)C1=O` (stereo not drawn) [Example 17, 1-(1H-Benzo[d]imidazol-6-yl)-5-(2,3-dichlorophenyl)-3-methoxy-4-methyl-1H-pyrrol-2(5H)-one]: the midpoint of inhibition, the IC50, lay at 557 nM and the Ki is 46.6 nM.
For `COC1=C(C)C(c2ccc(C3CCCCC3)cc2)N(c2ccc3nc[nH]c3c2)C1=O` (stereo not drawn) [Example 25, 1-(1H-Benzo[d]imidazol-6-yl)-5-(4-cyclohexylphenyl)-3-methoxy-4-methyl-1H-pyrrol-2(5H)-one] the same measures were 195 nM and 45.3 nM.
For `COC1=C(C)C(c2ccc(C3CCC(F)(F)CC3)cc2)N(c2ccc3nc[nH]c3c2)C1=O` (stereo not drawn) [Example 26, 1-(1H-Benzo[d]imidazol-6-yl)-5-(4-(4,4-difluorocyclohexyl)phenyl)-3-methoxy-4-methyl-1H-pyrrol-2(5H)-one] the same measures were 292 nM and 36.2 nM.
For `COC1=C(C)C(c2ccc(C3CCC(N4CCOCC4)CC3)cc2)N(c2ccc3nc[nH]c3c2)C1=O` (stereo not drawn) [Example 29, 1-(1H-Benzo[d]imidazol-6-yl)-3-methoxy-4-methyl-5-(4-(4-morpholinocyclo-hexyl)phenyl)-1H-pyrrol-2(5H)-one] the same measures were 221 nM and 18.7 nM.
As for `COC1=C(C)C(C2CCC(c3ccccc3)CC2)N(c2ccc3nc[nH]c3c2)C1=O` (stereo not drawn) [Example 32, 1-(1H-Benzo[d]imidazol-6-yl)-3-methoxy-4-methyl-5-(4-phenylcyclohexyl)-1H-pyrrol-2(5H)-one], the IC50 turned out to be 821 nM and the Ki is 164 nM.
